We go through 2 compounds from publication PMC5238714 (Biochemistry, 2016).

For one test, the target named is GARFTase. The conditions noted are these: read-out: reported Ki with GARFTase; in vitro assays; cited from earlier work.
The target of test [1] is T1, human GARFTase (formyltransferase domain) (Homo sapiens, UniProt P22102).
T1 sequence (P22102 810-1010 limits assumed): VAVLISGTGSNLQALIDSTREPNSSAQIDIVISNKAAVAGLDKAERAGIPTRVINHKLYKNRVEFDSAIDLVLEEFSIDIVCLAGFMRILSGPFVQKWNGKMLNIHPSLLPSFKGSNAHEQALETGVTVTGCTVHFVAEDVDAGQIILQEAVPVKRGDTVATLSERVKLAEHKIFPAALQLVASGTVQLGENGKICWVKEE
In words: GAR transformylase. It counts as biochemical. The conditions noted are these: ratio of Ki values.

The term Ki denotes a measure of affinity in units of concentration, obtained from inhibition or displacement. In the case of `Nc1nc(N)c(CCCC(C(=O)C(F)(F)F)c2ccc(C(=O)N[C@@H](CCC(=O)O)C(=O)O)cc2)c(=O)[nH]1` (some centres unmarked) [10-trifluoroacetyl antifolate, 10-(trifluoroacetyl)-5,10-dideazaacyclic-5,6,7,8-tetrahydrofolic acid], the Ki on GARFTase was 15 nM.

With `Nc1nc2[nH]c(CCCCCCCC(=O)N[C@@H](CCC(=O)O)C(=O)O)cc2c(=O)[nH]1` [AGF147], the “fold weaker GARFTase inhibition than AGF94 and AGF145” value in test [1] is “roughly 1.5 fold”.
